Reference: patent US12383566B2, “Inhibition of SLC transporter activity or expression to attenuate anthracycline-induced cardiotoxicity” (Northwestern University, priority 2021, dated 2025)

Key:
[1] = tested on: hiPSC-CMs; assay: Prestwick drug library screening for cardioprotection against DOX (10 μM, 72 h) by cell viability; type: cell-based, human; conditions: drug 3 μM (24 h pre-treatment + co-treatment)
Method: (§1) FIGS. 5A, 5B, 5C, 5D, 5E, 5F, and 5G. […] All drugs were used at 3 μM. […] LD50, median lethal dose. […] F, Ventricular fractional shortening at baseline, 1-, 2-, 3-weeks post treatment. […] For (D and G) log-logistic non-linear regression model was used to estimate the value of the four parameters, and t-statistic was used to test for significant difference in LD50 between different groups.
(§2) Next, we sought to expand our screening for novel cardioprotectants by testing the cardioprotective role of the Prestwick drug library that includes 1219 drugs.
(§3) 384-well plate-based cell viability, caspase 3/7 activity assays. […] Luminescence was measured using a VarioSkan Lux Multi-Mode Reader (Thermo Scientific) with an integration time of 0.25 sec. Apoptosis was measured using Caspase 3/7-Glo (Promega) respectively according to manufacturer's instructions with an integration time of 1 sec. 10 μM staurosporine (MedChemExpress) was used as a positive control. Data were analyzed using Prism 7.0 software (GraphPad) using standard dose-response guidelines.

[2] = tested on: hiPSC-CMs; assay: Validation of top FDA-approved cardioprotectants against 10 log-doses of doxorubicin (viability LD50); type: cell-based, human; conditions: drug 3 μM, 72 h
Method: as §1, §2, §3

Row | Structure (SMILES) | rank among cardioprotective drugs in Prestwick library screening [1] | LD50 of doxorubicin with cardioprotective drug co-treatment [2]
1 | Clc1ccc(CCC(Cn2ccnc2)Sc2c(Cl)cccc2Cl)cc1 (centres unmarked) [butoconazole, 1-[4-(4-chlorophenyl)-2-(2,6-dichlorophenyl)sulfanylbutyl]imidazole] | top ten significant cardio-protectants | 4.4 µM
2 | CNCCC(Oc1ccc(C(F)(F)F)cc1)c1ccccc1 (centres unmarked) [fluoxetine] | top ten significant cardio-protectants | 
3 | O=C1[C@H]2CCCC[C@H]2C(=O)N1CCCCN1CCN(c2nsc3ccccc23)CC1 [perospirone] | top ten significant cardio-protectants | 
4 | CC(C)c1cccc(C(C)C)c1O [propofol, 2,6-di(propan-2-yl)phenol] | top ten significant cardio-protectants | 4.77 µM
5 | CCCCNc1ccc(C(=O)OCCN(C)C)cc1 [tetracaine, 2-(dimethylamino)ethyl 4-(butylamino)benzoate] | top ten significant cardio-protectants | 4.65 µM
